# Data taken from publication PMC3913620, “Preclinical Evaluation of the Novel, Orally Bioavailable Selective Inhibitor of Nuclear Export (SINE) KPT-335 in Spontaneous Canine Cancer: Results of a Phase I Study” (PLoS ONE, 2014).
# Assays:
# [1] = Single oral dose pharmacokinetics in healthy dogs; assay type: in vivo; details: male, beagle, dog, plasma, 1.5 mg/kg single oral dose, fed, 6 dogs
# Description: KPT-335 was administered as a single oral dose in capsule formulation to 6 male beagle dogs at approximately 1.5 mg/kg following a meal. Serial blood samples were collected from each dog prior to dosing and at 0.25, 0.5, 1, 2, 4, 6, 8, 12, 18, 24 and 48 hours post-dose and placed into tubes containing K2EDTA. Blood samples were stored on wet ice until processed to plasma by centrifugation at 3500 rpm for 10 minutes at 5°C. Plasma samples were stored in at −80°C until analysis at Agilux Laboratories (Worcester, MA). Plasma samples were analyzed for parent drug concentration using sample preparation by protein precipitation and then analysis by LC-MS/MS using propranolol as the internal standard. The method was qualified for use (a single batch to assess method performance: precision and accuracy; linearity of dilution; and matrix specificity) prior to initiation of sample analysis. Acceptance criteria for calibration standards and quality control samples were within ±30% nominal concentration. Individual animal pharmacokinetic parameter values were derived by the pharmacokinetic analysis program Phoenix WinNonlin version 6.3 (Pharsight Corporation), using the non-compartmental Model 200 with uniform weighting. The single-dose pharmacokinetic parameters assessed include: Cmax (maximum concentration observed); Tmax (time of observed maximum concentration); AUC0→∞ (area under the concentration-time curve from time zero extrapolated to infinity); AUC0→last (area under the concentration-time curve from time zero to the time of the last quantifiable concentration); and t1/2 (terminal half life). Descriptive statistical data (mean, standard deviation, and standard error of the mean) were calculated from the unrounded numbers in an Excel (Microsoft) spreadsheet. Concentration results, means, and calculated parameters were reported to 3 significant figures.
# CLBL1 DLBCL cells = assay: MTS cell viability assay, CLBL1; assay type: cell-based, canine; details: Canis lupus familiaris, CLBL-1, 72 hours, read-out: IC50 (± S.D.), CLBL1
# Description: Cryopreserved tumor cells obtained from sterile lymph node biopsy samples from dogs with diffuse large B cell lymphoma (DLBCL) were cultured with 100 ng/mL of megaCD40L (Enzo Life Science, Plymouth Meeting, PA) as previously described, [27]. The human T-cell leukemia cell line, Jurkat, was from the American Type Culture Collection (ATCC, Manassas, VA) and cultured in RPMI1640 medium (Gibco/BRL, Grand Island, NY) containing 10% fetal bovine serum (FBS; Atlas Biologicals, Fort Collins, CO), 2-mercaptoethanol (Gibco/BRL), HEPES, L-glutamine, sodium pyruvate (Mediatech Inc., Manassas, VA), non-essential amino acids (Sigma Aldrich, St. Louis, MO), and Primocin (Invivogen, San Diego, CA). […]
# Cell viability for lymphoid lines was determined by the MTS (3-(4, 5-dimethylthiazol-2-yl)-5-(3-carboxymethoxyphenyl)-2-(4-sulfophenyl)-2H-tetrazolium) assay using CellTiter 96® AQueous One Solution Cell Proliferation Assay Kit (Promega, Madison, WI). […] After 72 hours, 20 µL of MTS solution was added to each well and cells were incubated for another 4 hours before measuring absorbance at 490 nm using a Wallac Victor 1420 Multilabel Counter (Perkin Elmer, Waltham, MA). The IC50 of SINE was calculated using Prism 6 software (GraphPad Software, Inc., La Jolla, CA).
smiles,measurement,setting,value
O=C(/C=C\n1cnc(-c2cc(C(F)(F)F)cc(C(F)(F)F)c2)n1)NNc1ccccn1 [KPT-335],Cmax,"[1]; po, 1.5 mg/kg, capsule",~250 ng/mL
same,Tmax,"[1]; po, 1.5 mg/kg, capsule",~4 h
same,AUC,[1],1800 ng·h/mL
same,AUC(0-inf),[1]; capsule,1810 ng·h/mL
same,AUC(0-t),"[1]; capsule, read-out: AUC0-last, mean",1760 ng·h/mL
same,half-life,"[1]; capsule, read-out: t1/2, mean (converted)",3.88 h
same,IC50,CLBL1 DLBCL cells,8.5 ± 4.1 nM
